What all share (format): cell-based
One test relates to NIH3T3. In words: FLIPR assay, background response of NIH3T3 cells. The settings on record: fold higher than ADP. An excerpt: (§1) Pharmacology of SP168—The pharmacological profile of SP168 was fuirther characterized by using the FLIPR and cAMP assays. SP168 was co-transfected with Gq/i3 to NIH3T3 cells, and a variety of nucleotides were screened by the FLIPR assay. […] EC50 for background ATP was about 1600 rLM, which was similar to 2-C1-ATP but was 20 fold higher than ADP. Therefore, even if ATP was included, the order of agonist potency was 2-MeS-ATP=2-MeS-ADP>ADP=ADPPS>ATPyS=ATP.

Test [1] addresses T1, SP168 receptor (Homo sapiens, UniProt Q9H244). Briefly: FLIPR Ca2+ assay, SP168 co-transfected with Gq/i3 in NIH3T3 cells (agonists). More on the design: expressed in transfected cells; host or cells: NIH3T3 cells, co-transfected with Gq/i3. The settings on record: for EC50: FLIPR, peak Ca2+ increment, SP168 + Gq/i3 transfected cells. On the procedure:
(§2) In order to identify SP168 receptor ligands the SP168 open reading frame was subcloned into the pcDNA3.1 expression vector under the control of the CMV promoter and transfected into mammalian cells. After allowing two days for receptor expression, the transfected cells were seeded into 96 well plates, loaded with the Ca^2+ sensitive Fluo-3AM dye and challenged with various compounds. The peak increments in Ca^2+ evoked by the test compounds were measured using the Fluorometric Inaging Plate Reader (FLIPR) system. The endogenous ligand of the SP168 receptor was purified from rat spinal cords using a series of chromatography steps and its structure was identified as being ADP by Mass spectroscopy. […] In addition to ADP, other agonists were also identified for SP168.
SP168 receptor cDNA was subdloned into the pcDNA3.1 expression vector (Invitrogen) and transiently co-transfected with chimera G protein Gq/i3 into CHO-DHFR^− (ATCC CRL-9096) cells using lipofectamine (Gibco- BRL). Chimera G protein Gq/i3 was constructed by replacing the C-terminus five amino acid residues of human Gqa with the five amino acid residue of human Gi3a (Conklin et al., Nature, 363, p274-276). pCDNA 3.1 vector DNA was also co-transfected with chimera G protein Gq/i3 as a negative control. The transfected cells were seeded into 96 well plates and incubated overnight at 37° C. in a tissue culture incubator. The growth medium was aspirated and replaced with 100 μl of loading medium (DMEM containing 1% FBS, […] Fluo-3-AM/10% pluronic acid and 2.5 mM Probenecid) and incubated for 1 hour at 37° C. The cells were subsequently washed 3 times with Hank's BSS buffer containing 20 mM HEPES, 2.5 mM Probenecid, and 0.1% BSA using the gentle setting in a Denley cell washer (Denley Instruments). The washed cells were placed in a Fluorometric Imaging Plate Reader (FLIPR) and changes in cellular fluorescence recorded after the addition of various dilutions of tissue extract fractions.
as §1

The target in test [2] is T1, SP168 receptor. In words: cAMP assay (inhibition of adenylyl cyclase). More on the design: expressed in transfected cells. The settings on record: adenylyl cyclase / cAMP pathway. As for the experimental part: as §2
The SP168 receptor cDNA was stably transfected into CHO-DHFR cells according standard procedures. The SP168 receptor stable cell line and wild type cell grown on 12-well plates were incubated for 2 hr with […] of medium plus 5 μCi of [3H]adenine/ml. Then 50 μl of Hepes (250 mM, pH 7.5, 50 μM Forskolin, 200 μM IBMX) with the compound to be screened was added to the cells and incubated for 10 minutes at 37 ° C. Incubations were terminated by addition of 0.8 ml of 5% trichloroacetic acid. [^3H]cAMP was purified using Dowex and alumina chromatography as previously described (Harden et al., Mol. Pharmacol. 21:570-580, 1982).
(Cyclic AMP is a second messenger, typically raised through Gs and lowered through Gi signalling.)

Each structure is given as a SMILES string.

T1 sequence (Q9H244 whole entry): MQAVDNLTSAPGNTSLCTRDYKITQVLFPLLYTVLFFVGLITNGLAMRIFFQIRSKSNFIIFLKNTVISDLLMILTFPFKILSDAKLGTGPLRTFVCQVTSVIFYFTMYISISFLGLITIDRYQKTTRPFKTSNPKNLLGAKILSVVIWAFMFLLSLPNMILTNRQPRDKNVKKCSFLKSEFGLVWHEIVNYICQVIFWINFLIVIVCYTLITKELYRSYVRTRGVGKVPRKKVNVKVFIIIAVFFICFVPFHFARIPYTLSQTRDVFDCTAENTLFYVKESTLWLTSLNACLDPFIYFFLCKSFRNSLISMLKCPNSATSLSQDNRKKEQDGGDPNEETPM

For `Nc1ncnc2c1ncn2[C@@H]1O[C@H](COP(=O)(O)OP(=O)(O)OP(=O)(O)O)[C@@H](O)[C@H]1O` [ATP], the “EC50 of background ATP relative to ADP” value in the test with NIH3T3 was 20 fold. Further, the “shift of dosage curve by SP168 transfection” value at SP168 receptor [1] (NIH3T3, FLIPR) is “did not induce the shift of dosage curve”.
With `CSc1nc(N)c2ncn([C@@H]3O[C@H](COP(=O)(O)OP(=O)(O)OP(=O)(O)O)[C@@H](O)[C@H]3O)c2n1` [2-MeS-ATP], on SP168 receptor [1], the EC50 was determined as 3.4 nM.
Still for that read-out and setting: with `CSc1nc(N)c2ncn([C@@H]3O[C@H](COP(=O)(O)OP(=O)(O)O)[C@@H](O)[C@H]3O)c2n1` [2-MeS-ADP] the figure was 2.3 nM; with `Nc1nc(Cl)nc2c1ncn2[C@@H]1O[C@H](COP(=O)(O)OP(=O)(O)OP(=O)(O)O)[C@@H](O)[C@H]1O` [2-Cl-ATP], 470 nM.
Consider `Nc1ncnc2c1ncn2[C@@H]1O[C@H](COP(=O)(O)OP(=O)(O)O)[C@@H](O)[C@H]1O` [ADP, 5′-adenosine diphosphate], for which, on SP168 receptor [2], the “activation of the SP168 receptor” value is recorded as “activate the SP168 receptor through inhibition of adenylyl cyclase”. Besides, the concentration giving a half-maximal response (EC50) at SP168 receptor [1] turned out to be 74 nM.
In the case of `Nc1ncnc2c1ncn2[C@@H]1O[C@H](COP(=O)(O)OP(O)(O)=S)[C@@H](O)[C@H]1O` [ADPβS], the EC50 on SP168 receptor [1] was 89 nM.
On the same count and under the same terms, with `Nc1ncnc2c1ncn2[C@@H]1O[C@H](COP(=O)(O)OP(=O)(O)OP(O)(O)=S)[C@@H](O)[C@H]1O` [ATPγS] the figure was 1200 nM.

Broadly, the EC50 is the concentration giving half of the maximal effect.

The record behind these values is patent publication US20010046497A1, “G-protein coupled receptor and methods” (priority 2000, published 2001).
